What all share (assay): relative viability (nuclei count vs DMSO), 5 days (fraction); higher = more cells survive
Compound in assay [1]: C[C@]12O[C@H](C[C@]1(O)CO)n1c3ccccc3c3c4c(c5c6ccccc6n2c5c31)CNC4=O [Lestaurtinib] + O=C(c1cc(Cc2n[nH]c(=O)c3ccccc23)ccc1F)N1CCN(C(=O)C2CC2)CC1 [Olaparib] (partner 8 µM)
In a few lines:
(§1)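 Lung cancer cell lines, seeded in 1536-well plates, were treated the following day by pin tool with a single drug or with five library-drug doses (not always all listed) in √10 steps on top of a fixed anchor-drug dose. Cells were fixed and nuclei stained in one step after 5 days, and nuclei were counted. Relative viability is the nuclei count for treated wells divided by that for vehicle wells, reported as medians of duplicate plates.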

Compound in assay [2]: C1/C(=C\C2=CC=CS2)/C(=O)/C(=C/C3=CC=CS3)/C1 + CC(C)C[C@H](NC(=O)[C@H](Cc1ccccc1)NC(=O)c1cnccn1)B(O)O [Bortezomib] (partner 0.002 µM)
In a few lines:
as §1

Compound in assay [3]: C1/C(=C\C2=CC=CS2)/C(=O)/C(=C/C3=CC=CS3)/C1 + Cc1nc(Nc2ncc(C(=O)Nc3c(C)cccc3Cl)s2)cc(N2CCN(CCO)CC2)n1 [Dasatinib] (partner 0.075 µM)
In a few lines: as §1

Compound in assay [4]: C1/C(=C\C2=CC=CS2)/C(=O)/C(=C/C3=CC=CS3)/C1 + N=C(N)NC(=N)NCCc1ccccc1 [Phenformin] (partner 250 µM)
In a few lines: as §1

Compound in assay [5]: C1=CC(=CC=C1C2=CC(=C(S2)NC(=O)N)C(=O)N)F [TPCA-1] + COc1cc2c(Oc3ccc(NC(=O)C4(C(=O)Nc5ccc(F)cc5)CC4)cc3F)ccnc2cc1OCCCN1CCOCC1 [Foretinib] (partner 0.25 µM)
In a few lines:
as §1

UMC-11: the relative viability in assay [1] (first compound 0.005 µM) was 0.402; in assay [1] (first compound 0.01581 µM), 0.466; in assay [1] (first compound 0.05 µM) it was 0.384; in assay [1] (first compound 0.1581 µM), 0.273; in assay [1] (first compound 0.5 µM), 0.171; in assay [2] (first compound 0.2 µM) it was 0.717. In addition, the relative viability in assay [2] (first compound 0.6325 µM) is 0.579; in assay [2] (first compound 2 µM) it was 0.639; in assay [2] (first compound 20 µM), 0.597; in assay [3] (first compound 0.2 µM), 0.555; in assay [3] (first compound 0.6325 µM), 0.507; in assay [3] (first compound 20 µM), 0.472. Also, the relative viability in assay [4] (first compound 0.2 µM) came out at 0.32; in assay [4] (first compound 0.6325 µM) it was 0.365; in assay [4] (first compound 20 µM), 0.324; in assay [5] (first compound 0.04 µM), 1.16; in assay [5] (first compound 0.1265 µM), 1.02; in assay [5] (first compound 0.4 µM), 1.04. The relative viability is 0.925 in assay [5] (first compound 1.265 µM) and 0.387 in assay [5] (first compound 4 µM).

(Values after the supplement of paper PMC10307832.)
